Test results reported in patent publication US10800755B2, “2,6-disubstituted pyridine derivative” (Sumitomo Dainippon Pharma Co., Ltd., priority 2017, dated 2020).

Legend:
[1] = Test 4-1: predictive test of human half-life (monkey distribution volume, serum unbound fraction, Test 3-1 stability); details: in vivo, predicted using Test 3-1 metabolic stability
Experimental: Test 4-1: Predictive Test of Human Half-Life
(§1) 0.01 mol/L of the present compound in aqueous hydrochloric acid solution was parenterally administered to cynomolgus monkey. 5 minutes, 15 minutes, 30 minutes, 1 hour, 2 hours, 4 hours, 6 hours, and 24 hours after the administration, the blood was collected. The plasma was obtained from the collected blood, the drug concentration in the plasma was measured with a LC-MS, and the monkey distribution volume was calculated from the transition of the concentrations. The unbound fraction rate of the present compound in serum of human and monkey was measured by equilibrium dialysis method.
Using the monkey distribution volume, the unbound fraction rate in serum of human and monkey, and the result of the metabolic stability of human liver microsome which was obtained in Test 3-1, the half-life in human was calculated according to the formula below. “Human distribution volume”=“monkey distribution volume”×“unbound fraction rate in serum of human”/“unbound fraction rate in serum of monkey” “Human hepatic clearance”=(“human hepatic blood flow”×“unbound fraction rate in serum of human”×56.7×“metabolic stability of human liver microsome”)/(“human hepatic blood flow”+“unbound fraction rate in serum of human”×56.7×“metabolic stability of human liver microsome”) “Half-life in human”=0.693×“human distribution volume”/“human hepatic clearance”

SD male rat = test: Test 6: contextual fear conditioning test; assay type: in vivo; details: 15 mg/kg administration
Experimental: Test 6: Contextual Fear Conditioning Test
The antianxiety of the present compounds was evaluated in a manner mentioned below.
The evaluation of an 8-week-old SD male rat with a fear conditioning test system (O'HARA & CO., LTD.) was carried out in 2-day test schedule. On the 1st day of the test, by giving 0.5 mA of electric shock to the rat as unconditioned stimulus 5 times for 6 minutes, the rat was made to learn the relationship the context (the illuminance in the cage: 200 lx) which was given as conditioned stimulus, and phobic stimulus. On the 2nd day, the present compound was subcutaneously administered with saline solution to the rat, or orally administered with methylcellulose suspension to the rat. 0.5 or 1 hour after the administration, the rat was made to softly enter the cage under the condition in which the unconditioned stimulus was not given in the context. The time of cataleptic freezing reaction that the rat took for 5-minute freely-moving period and its ratio were measured. The ratios of cataleptic freezing reaction between the solvent-administration group and the present compound-administration group were compared to be statistically processed.

human D4 receptor = human D4 receptor (Homo sapiens (Human), UniProt P21917); test: Test 1: agonistic activity for human D4 receptor (aequorin/Gα16 luminescence in CHO-K1 cell); assay type: cell-based
Sequence of human D4 receptor (P21917 whole entry): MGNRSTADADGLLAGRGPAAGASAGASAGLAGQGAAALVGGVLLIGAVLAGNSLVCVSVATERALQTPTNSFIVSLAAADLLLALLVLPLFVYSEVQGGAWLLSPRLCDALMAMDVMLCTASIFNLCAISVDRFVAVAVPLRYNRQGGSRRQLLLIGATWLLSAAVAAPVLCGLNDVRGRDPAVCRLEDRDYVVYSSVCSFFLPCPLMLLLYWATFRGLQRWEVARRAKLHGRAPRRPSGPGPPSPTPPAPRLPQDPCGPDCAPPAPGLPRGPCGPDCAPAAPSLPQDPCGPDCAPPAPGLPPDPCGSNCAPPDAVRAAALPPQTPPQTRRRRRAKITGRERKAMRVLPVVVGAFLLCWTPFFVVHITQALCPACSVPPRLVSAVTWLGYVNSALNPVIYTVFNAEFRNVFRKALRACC

human D2 receptor = human D2 receptor (Homo sapiens (Human), UniProt P14416); test: Test 2: binding activity to human D2 receptor ([3H] spiperone, CHO cell membrane); details: [3H] spiperone; read-out: D2 binding affinity (Ki value)
Sequence of human D2 receptor (P14416 whole entry): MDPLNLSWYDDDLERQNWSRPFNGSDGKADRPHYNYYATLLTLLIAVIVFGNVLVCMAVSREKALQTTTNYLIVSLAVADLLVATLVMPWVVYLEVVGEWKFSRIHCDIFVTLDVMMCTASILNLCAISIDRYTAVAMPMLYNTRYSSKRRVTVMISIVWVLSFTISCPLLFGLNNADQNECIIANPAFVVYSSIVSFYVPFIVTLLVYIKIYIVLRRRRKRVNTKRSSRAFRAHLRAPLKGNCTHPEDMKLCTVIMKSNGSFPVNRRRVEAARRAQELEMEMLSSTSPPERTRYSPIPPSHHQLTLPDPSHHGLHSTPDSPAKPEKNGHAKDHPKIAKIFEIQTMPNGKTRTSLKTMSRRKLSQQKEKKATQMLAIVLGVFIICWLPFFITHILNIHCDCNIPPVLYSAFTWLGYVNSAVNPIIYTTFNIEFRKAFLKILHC

Wistar male rat = test: Test 8: forced swimming test; assay type: in vivo; details: oral, once a day, 5 mg/kg administration
Experimental: Test 8: Forced Swimming Test
The antidepressive effect of the present compound was evaluated in a manner mentioned below.
The test was carried out with 8-week-old Wistar male rat in 4-day test schedule. On the 1st day of the test, the rat was put into a transparent plastic bath filled with 5.8 L of tap water at 25° C., and made to swim for 15 minutes as swimming training. After the swimming training, the rat was rapidly wiped to remove the attached waterdrop, and returned to the home cage. 15 minutes after the training, the present compound or a positive control compound was orally administered with methylcellulose suspension to the rat. On the next day of the training and the day after next, the present compound or the positive control compound was orally administered with methylcellulose suspension to the rat once a day. On the 4th day, the swimming test was carried out. On the day of the swimming test, the present compound or the positive control compound was orally administered with methylcellulose suspension to the rat one hour before the start of the test. The swimming test was carried out with the rat in the above-mentioned water bath for 5 minutes. The swimming movement of the individual was recorded with a video from the side of the water bath, and the immobility time was measured with a stop-watch. […]

[2] = Test 4-2: predictive test of human half-life (monkey distribution volume, serum unbound fraction, Test 3-2 stability); details: in vivo, predicted using Test 3-2 metabolic stability
Experimental: Test 4-2: Predictive Test of Human Half-Life
as §1
Using the monkey distribution volume, the unbound fraction rate in serum of human and monkey, and the result of the metabolic stability of human liver microsome which was obtained in Test 3-2, the half-life in human was calculated according to the formula below. “Human distribution volume”=“monkey distribution volume”×“unbound fraction rate in serum of human”/“unbound fraction rate in serum of monkey” “Human hepatic clearance”=(“human hepatic blood flow”×“unbound fraction rate in serum of human”×56.7×“metabolic stability of human liver microsome”)/(“human hepatic blood flow”+“unbound fraction rate in serum of human”×56.7×“metabolic stability of human liver microsome”) “Half-life in human”=0.693×“human distribution volume”/“human hepatic clearance”

ICR male mouse = test: Test 7: marble-burying behavior test; assay type: in vivo
Experimental: Test 7: Marble-Burying Behavior Test
The effect of the present compound for obsessive-compulsive disorder-like behavior was evaluated in a manner mentioned below.
450-500 g of paper floorcloth was beded in a plastic cage (floor area: 778 cm^2), and 20 glass marbles were set on the paper floorcloth at regular intervals. To a 5-week-old ICR male mouse, the present compound was intraperitoneally administered with saline solution. 15 minutes after the administration, the mouse was made to softly enter the corner of the cage and move freely in the cage for 15 minutes. Then the mouse was taken out from the cage. The number of the marbles that were buried in the floorcloth was counted. The numbers in the solvent-administration group and the present compound-administration group were compared to be statistically processed.

human 5-HT1A receptor = human 5-HT1A receptor (Homo sapiens (Human), UniProt P08908); test: Test 1: agonistic activity for human 5-HT1A receptor (aequorin/Gα16 luminescence in CHO-K1 cell); assay type: cell-based
Sequence of human 5-HT1A receptor (P08908 whole entry): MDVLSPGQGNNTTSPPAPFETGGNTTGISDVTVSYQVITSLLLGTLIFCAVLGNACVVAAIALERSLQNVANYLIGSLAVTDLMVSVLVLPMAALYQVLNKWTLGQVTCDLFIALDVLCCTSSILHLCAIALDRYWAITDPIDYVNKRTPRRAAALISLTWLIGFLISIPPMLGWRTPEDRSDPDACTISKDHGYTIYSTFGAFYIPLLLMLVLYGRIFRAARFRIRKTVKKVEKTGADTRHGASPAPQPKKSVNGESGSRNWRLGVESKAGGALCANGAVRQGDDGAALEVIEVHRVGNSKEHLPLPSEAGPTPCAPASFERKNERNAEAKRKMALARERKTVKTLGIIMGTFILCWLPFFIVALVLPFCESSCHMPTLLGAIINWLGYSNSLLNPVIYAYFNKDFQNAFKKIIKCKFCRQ
Summary of the method: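 Aequorin and Gα16 transiently co-expressed with each receptor in CHO-K1 cells, cultured 24 h at 37 °C. Compounds added from DMSO solution; agonism read as change in luminescence.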

[3] = CHO-K1, 100% = 10 μmol/L endogenous ligand
[4] = CHO-K1 cell, aequorin luminescence

With O=C(NCCN1CCC(c2cccc(C(F)(F)F)n2)CC1)C1CCC(F)(F)CC1 [Example 1, 4,4-Difluoro-N-(2-{4-[6-(trifluoromethyl)pyridin-2-yl]piperidin-1-yl}ethyl)cyclohexane-carboxamide] the half-life [1] was 11 h, the “decrease of the cataleptic freezing reaction for the solvent-administration group” value (SD male rat) was 82.5% and the Emax (human D4 receptor; [3]) was 67%. For the same compound, the EC50 (human D4 receptor; [4]) was 11.9 nM, the Ki (human D2 receptor) was 1140 nM and the “decrease of the immobility time for the solvent-administration group” value (Wistar male rat) was 74.7%. For the same compound, the half-life [2] was 24 h, the “enhancement effect of decreasing the number of the buried marbles compared with single administration of escitalopram” value (ICR male mouse; combination with escitalopram, 0.3 mg/kg administration) was 43.8% and the “decrease of the buried marbles for the solvent-administration group” value (ICR male mouse; intraperitoneal, 0.5 mg/kg administration) was 44.8%. The Emax (human 5-HT1A receptor; [3]) was 96% and the EC50 (human 5-HT1A receptor; [4]) was under 10 nM.
